Assay results: patent EP0075167B1 (priority 1981, dated 1983)
Read-outs that look alike come from different tables or passages of the source.

Columns and labels:
Phytophthora infestans [1] = format: in vivo; settings: systemic; preparation poured onto standard soil of young tomato plants; inoculated 3 days after treatment; 100% rel. humidity, ca. 20°C; evaluated 3 days after inoculation; compared with prior-art comparison substances
Phytophthora infestans [2] = format: in vivo; settings: protective; young tomato plants sprayed to dripping wet, then inoculated with spore suspension; 100% rel. humidity, ca. 20°C; evaluated 3 days after inoculation; compared with prior-art comparison substances

SMILES	Wirksamkeit (Phytophthora infestans [1])	Wirksamkeit (Phytophthora infestans [2])
C=C(C)N(C(=O)COC)c1c(C)cccc1C [Beispiel 1, N-Me-^1 thoxyacetyl-N-(1-methylvinyl)-2,6-dimethylanilin]	deutliche Überlegenheit in der Wirksamkeit gegenüber dem Stand der Technik	deutliche Überlegenheit in der Wirksamkeit gegenüber dem Stand der Technik
C#CCOCC(=O)N(C=C)c1c(C)cccc1C [Beispiel 9, N-Propargyloxyacetyl-N-vinyl-2,6-dimethylanilin]	deutliche Überlegenheit in der Wirksamkeit gegenüber dem Stand der Technik	
C=C(C)N(C(=O)Cn1cncn1)c1c(C)cccc1C [Beispiel 8, N-(1-Methylvinyl)-N-(1,2,4-triazol-1-yl-acetyl)-2,6-dimethylanilin]		deutliche Überlegenheit in der Wirksamkeit gegenüber dem Stand der Technik
